Among the data in patent US20130244999A1, “Substituted Heterocyclic Compounds” (Incyte Corporation, priority 2008, published 2013) are inhibition and IC50 values, retold here.

Molecules are shown by their SMILES.

The target in one test is T1, histamine H4 receptor (Homo sapiens, UniProt Q9H3N8).
T1 construct: expressed in transfected cells; host or cells: HEK293SFM cells (membrane preparation)
T1 sequence (Q9H3N8 whole entry): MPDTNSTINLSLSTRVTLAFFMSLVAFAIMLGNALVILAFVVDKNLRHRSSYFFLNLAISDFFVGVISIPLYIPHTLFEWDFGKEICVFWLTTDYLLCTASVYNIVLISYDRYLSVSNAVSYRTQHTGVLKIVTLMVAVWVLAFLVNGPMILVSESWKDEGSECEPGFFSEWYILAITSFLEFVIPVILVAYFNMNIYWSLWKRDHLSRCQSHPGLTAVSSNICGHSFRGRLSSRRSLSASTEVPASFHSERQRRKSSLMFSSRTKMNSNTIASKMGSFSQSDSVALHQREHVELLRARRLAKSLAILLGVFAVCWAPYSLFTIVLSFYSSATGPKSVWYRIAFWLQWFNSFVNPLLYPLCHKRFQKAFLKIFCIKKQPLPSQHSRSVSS
Put plainly: Inhibition of histamine H4 receptor (Table A1; H4 membrane binding assay).
Conditions: not given
In a few lines: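 Membranes came from recombinant HEK293SFM cells expressing human H4, homogenized in 50 mM Tris-HCl pH 7.5 with protease inhibitors. Nonspecific binding was set with 1000× unlabeled ligand. Bound radioligand was separated on PEI-treated GF/B filters and counted by liquid scintillation.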
`CCNC(=O)c1cccc(-c2ccc3c(c2)CN(c2cc(N4CCN(C)CC4)nc(N)n2)C(C)C3)n1` (single isomer, unassigned) [Example 158, 6-{2-[2-Amino-6-(4-methylpiperazin-1-yl)pyrimidin-4-yl]-3-methyl-1,2,3,4-tetrahydroisoquinolin-7-yl}-N-ethylpyridine-2-carboxamide] gave an inhibition at 1 µM of 70%.

Staying with this test, now noted: histamine H4 receptor; "> a" = exceeds experiment limit.
In turn, `CC1Cc2ccc(-c3cnn(C(C)C)c3)cc2CN1c1cc(N2CCN(C)CC2)nc(N)n1` (single isomer, unassigned) [Example 105, 4-[7-(1-Isopropyl-1H-pyrazol-4-yl)-3-methyl-3,4-dihydroisoquinolin-2(1H)-yl]-6-(4-methylpiperazin-1-yl)pyrimidin-2-amine] registered an IC50 of 53 nM.
In the case of `CC1Cc2ccc(-c3cnn(CC4CCC4)c3)cc2CN1c1cc(N2CCN(C)CC2)nc(N)n1` (single isomer, unassigned) [Example 106, 4-[7-[1-(cyclobutylmethyl)-1H-pyrazol-4-yl]-3-methyl-3,4-dihydroisoquinolin-2(1H)-yl]-6-(4-methylpiperazin-1-yl)pyrimidin-2-amine], the IC50 is 63 nM.
Molecule `CCn1cc(-c2ccc3c(c2)CN(c2cc(N4CCN(C)CC4)nc(N)n2)C(C)C3)cn1` (single isomer, unassigned) [Example 107, 4-[7-(1-Ethyl-1H-pyrazol-4-yl)-3-methyl-3,4-dihydroisoquinolin-2(1H)-yl]-6-(4-methylpiperazin-1-yl)pyrimidin-2-amine] displayed a concentration for half-maximal inhibition (IC50) of 42 nM.
On the same count and under the same terms, the figure for `CC1Cc2ccc(-c3cnn(C4CCOC4)c3)cc2CN1c1cc(N2CCN(C)CC2)nc(N)n1` (single isomer, unassigned) [Example 108, 4-(4-Methylpiperazin-1-yl)-6-[3-methyl-7-[1-(tetrahydrofuran-3-yl)-1H-pyrazol-4-yl]-3,4-dihydroisoquinolin-2(1H)-yl]pyrimidin-2-amine] is 46 nM; for `CC1Cc2ccc(-c3cnn(CC4CCCC4)c3)cc2CN1c1cc(N2CCN(C)CC2)nc(N)n1` (single isomer, unassigned) [Example 109, 4-[7-[1-(Cyclopentylmethyl)-1H-pyrazol-4-yl]-3-methyl-3,4-dihydroisoquinolin-2(1H)-yl]-6-(4-methylpiperazin-1-yl)pyrimidin-2-amine] it is 100 nM.
Still for that read-out and setting: the figure for `CC1Cc2ccc(-c3cnn(CCO)c3)cc2CN1c1cc(N2CCN(C)CC2)nc(N)n1` (single isomer, unassigned) [Example 110, 2-(4-{2-[2-Amino-6-(4-methylpiperazin-1-yl)pyrimidin-4-yl]-3-methyl-1,2,3,4-tetrahydroisoquinolin-7-yl}-1H-pyrazol-1-yl)ethanol] is 35 nM.
The molecule `CC1Cc2ccc(-c3cnn(C4CCN(CCO)CC4)c3)cc2CN1c1cc(N2CCN(C)CC2)nc(N)n1` (single isomer, unassigned) [Example 111, 2-[4-(4-{2-[2-Amino-6-(4-methylpiperazin-1-yl)pyrimidin-4-yl]-3-methyl-1,2,3,4-tetrahydroisoquinolin-7-yl}-1H-pyrazol-1-yl)piperidin-1-yl]ethanol] showed an IC50 of 22 nM.
For the molecule `COCCn1cc(-c2ccc3c(c2)CN(c2cc(N4CCN(C)CC4)nc(N)n2)C(C)C3)cn1` (single isomer, unassigned) [Example 112, 4-[7-[1-(2-Methoxyethyl)-1H-pyrazol-4-yl]-3-methyl-3,4-dihydroisoquinolin-2(1H)-yl]-6-(4-methylpiperazin-1-yl)pyrimidin-2-amine], the half-maximal inhibitory concentration (IC50) stood at 40 nM. Against the preceding molecule, the IC50 is about 1.8-fold higher.
`CC1Cc2ccc(-c3cnn(CC(N)=O)c3)cc2CN1c1cc(N2CCN(C)CC2)nc(N)n1` (single isomer, unassigned) [Example 113, 2-(4-{2-[2-Amino-6-(4-methylpiperazin-1-yl)pyrimidin-4-yl]-3-methyl-1,2,3,4-tetrahydroisoquinolin-7-yl}-1H-pyrazol-1-yl)acetamide] came in with an IC50 of 72 nM.
`CC1Cc2ccc(-c3cnn(CCC(N)=O)c3)cc2CN1c1cc(N2CCN(C)CC2)nc(N)n1` (single isomer, unassigned) [Example 114, 3-(4-{2-[2-Amino-6-(4-methylpiperazin-1-yl)pyrimidin-4-yl]-3-methyl-1,2,3,4-tetrahydroisoquinolin-7-yl}-1H-pyrazol-1-yl)propanamide] gave an IC50 of 34 nM.
`CC1Cc2ccc(-c3cnn(C4CCCC4)c3)cc2CN1c1cc(N2CCN(C)CC2)nc(N)n1` (single isomer, unassigned) [Example 115, 4-[7-(1-Cyclopentyl-1H-pyrazol-4-yl)-3-methyl-3,4-dihydroisoquinolin-2(1H)-yl]-6-(4-methylpiperazin-1-yl)pyrimidin-2-amine] registered a concentration for half-maximal inhibition (IC50) of 40 nM. This IC50 and that of the molecule before are within 1.5-fold of each other.
Molecule `CC1Cc2ccc(-c3ccc(C(=O)N4CC[C@H](F)C4)nc3)cc2CN1c1cc(N2CCN(C)CC2)nc(N)n1` (single isomer, unassigned) [Example 154A] gave a concentration for half-maximal inhibition (IC50) of 85 nM.
Still for that read-out and setting: to `CC1Cc2ccc(-c3ccc(C(=O)N4CC[C@H](F)C4)nc3)cc2CN1c1cc(N2CCN(C)CC2)nc(N)n1` (single isomer, unassigned) [Example 154B] belongs 355 nM.
On the same count and under the same terms, the figure for `CC1Cc2ccc(-c3ccn(Cc4ccccn4)n3)cc2CN1c1cc(N2CCN(C)CC2)nc(N)n1` (single isomer, unassigned) [Example 155, 4-(4-Methylpiperazin-1-yl)-6-[3-methyl-7-[1-(pyridin-2-ylmethyl)-1H-pyrazol-3-yl]-3,4-dihydroisoquinolin-2(1H)-yl]pyrimidin-2-amine] is 15.3 nM.
On the same count and under the same terms, to `CC1Cc2ccc(-c3ccn(Cc4cccnc4)n3)cc2CN1c1cc(N2CCN(C)CC2)nc(N)n1` (single isomer, unassigned) [Example 156, 4-(4-Methylpiperazin-1-yl)-6-[3-methyl-7-[1-(pyridin-3-ylmethyl)-1H-pyrazol-3-yl]-3,4-dihydroisoquinolin-2(1H)-yl]pyrimidin-2-amine] belongs 8.7 nM; to `CC1Cc2ccc(-c3ccn(Cc4ccncc4)n3)cc2CN1c1cc(N2CCN(C)CC2)nc(N)n1` (single isomer, unassigned) [Example 157, 4-(4-Methylpiperazin-1-yl)-6-[3-methyl-7-[1-(pyridin-4-ylmethyl)-1H-pyrazol-3-yl]-3,4-dihydroisoquinolin-2(1H)-yl]pyrimidin-2-amine], 8.7 nM.
In turn, `CC1Cc2ccc(-c3cnn(C)c3)cc2CN1c1cc(N2CCCC(N)C2)nc(N)n1` (stereo in doubt) [Example 119, 4-[(3S)-3-Aminopiperidin-1-yl]-6-[3-methyl-7-(1-methyl-1H-pyrazol-4-yl)-3,4-dihydroisoquinolin-2(1H)-yl]pyrimidin-2-amine] displayed an IC50 of 91 nM.
Same read-out and setting: to `CN1CCN(c2cc(N3CCc4ccc(Br)cc4C3)nc(N)n2)CC1` [Example 1, 4-(7-Bromo-3,4-dihydroisoquinolin-2(1H)-yl)-6-(4-methylpiperazin-1-yl)pyrimidin-2-amine] belongs 39 nM; to `CNC(=O)c1ccc(-c2ccc3c(c2)CN(c2cc(N4CCN(C)CC4)nc(N)n2)CC3)cn1` [Example 2, 5-{2-[2-Amino-6-(4-methylpiperazin-1-yl)pyrimidin-4-yl]-1,2,3,4-tetrahydroisaquinolin-7-yl}-N-methylpyridine-2-carboxamide], 20 nM.

What is called inhibition is the change of the read-out against control, counted positive when it falls. Low readings indicate little suppression, high ones strong suppression. What is called IC50 is the concentration that gives 50% inhibition. High values mean a need for much substance, low ones inhibition by little substance.
